{"source": "paper PMC6600523", "about": "“Interference with Amyloid-β Nucleation by Transient Ligand Interaction” (Molecules, 2019)", "key": {"Aβ42 [1]": {"biological_target": "T1, Aβ42 (Homo sapiens, UniProt P05067)", "T1 construct": "purchased Bachem H-1368.1000", "T1 sequence (P05067 672-713 limits assumed)": "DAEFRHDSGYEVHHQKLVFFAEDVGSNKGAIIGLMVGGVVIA", "experiment": "Atomic force microscopy, morphologies of Aβ42 samples", "format": "biochemical", "conditions": "20 mM sodium phosphate, 50 mM NaCl pH 7.4, 20 °C, AFM in air, AC mode", "method": "At 48 h and 120 h, 10 μL samples were pipetted onto freshly cleaved mica, and were further incubated at room temperature for 30 min. Mica with deposited samples were rinsed with ultrapure water for three times and finally dried with nitrogen gas. Atomic force microscopy (AFM) imaging was carried out in air at room temperature, using silicon cantilevers (OMCL AC160 TS, Olympus, Tokyo, Japan) and a JPK NanoWizard 3 microscope (JPK Instruments AG, Berlin, Germany) in AC mode. The nominal tip diameter of the cantilever was 7 nm. AFM height images at 10 × 10 μm^2 and 1 × 1 μm^2 (both with a resolution of 1024 × 1024 pixel) for all samples were taken with a line rate of 1 Hz and respective scanning speeds of 22.55 μm/s and 2.48 μm/s. Data was processed with JPK NanoWizard SPM data processing software."}, "[2]": {"experiment": "Sedimentation velocity AUC with fluorescence detection, labeled peptide alone", "format": "physicochemical", "conditions": "sedimentation velocity AUC-FDS of FITC-D3 alone, 0.2 μM, 20 mM sodium phosphate, 50 mM NaCl pH 7.4, 0.0004% PEI", "method": "All measurements were performed using an XL-A analytical ultracentrifuge (Beckman coulter, Brea, CA, USA). […] All samples were prepared in 20 mM sodium phosphate, 50 mM NaCl (pH 7.4) containing 0.0004% PEI (w/v). Samples were then loaded into 3-mm double-sector titanium cells (Nanolytics, Potsdam, Germany), with each sector containing a 100 μL sample. The detection system uses an excitation laser at 488 nm and an emission cut-off filter at 505 nm to collect fluorescence signals. The amplification factor was adjusted to the same value for all samples for comparability. […] Data was acquired at 20 nm radial resolution. After thorough thermal equilibration the centrifugation was carried out at 60,000 rpm (289,000× g) at 20 °C for 15 h. Carrier proteins, such as albumin and kappa casein, are usually recommended to minimize unspecific surface adsorption for fluorescence-based AUC [56]. All sedimentation profiles were subjected to the software package SEDFIT (version 15.01b) for data evaluation. The data was analyzed with the continuous distribution c(s) Lamm equation model to obtain the sedimentation coefficient distributions. Fitting parameters (Table S1) including the buffer density and viscosity were determined using Sednterp (version 20130813BETA). […]"}, "Aβ42 [3]": {"biological_target": "T1, Aβ42", "experiment": "Seeding experiment, ThT kinetics of seeded Aβ42", "format": "biochemical", "conditions": "20 mM sodium phosphate, 50 mM NaCl pH 7.4, 20 °C", "method": "The sample was then incubated quiescently at room temperature for 120 h. […] Samples were pipetted to a 96-well plate, with each well containing 200 μL samples. The plate was then covered with a sealing film. ThT fluorescence of all samples was recorded using the same device and parameters, as described above for ThT assays. All samples were prepared in duplicate. Final data was normalized and averaged based on the repetitions."}, "Aβ42 [4]": {"biological_target": "T1, Aβ42", "experiment": "Circular dichroism spectroscopy, secondary structure transition of Aβ42", "format": "biochemical", "conditions": "20 mM sodium phosphate, 50 mM NaF pH 7.4, 20 °C", "method": "NaF was used to substitute NaCl in this measurement to maintain the ionic strength of the buffer, so as to avoid the strong absorbance of NaCl in the far-UV area. […] All samples were prepared on ice before being transferred to 1 mm path length quartz cuvettes. The final volume of each sample was 200 μL. Circular dichroism (CD) spectra were recorded from 260 nm to 190 nm using a J-815 spectropolarimeter (Jasco, Tokyo, Japan). All measurements were carried out with a step size of 0.5 nm and a bandwidth of 2 nm. The scanning speed was set to 100 nm/min and 10 scans were accumulated for each sample. […] Samples were maintained at 20 °C within the measurement duration of 120 h, and were prepared in triplicate. CD spectra for all samples were deconvoluted using the online server Dichroweb by applying the CDSSTR algorithm and reference dataset Set 7 [87]."}, "Aβ42 [5]": {"biological_target": "T1, Aβ42", "experiment": "Sedimentation velocity AUC with fluorescence detection, Aβ42 and D3 mixtures", "format": "binding", "conditions": "0.33 μM FITC-Aβ42 with various D3 concentrations; 55 mM Tris-HCl, 50 mM NaCl pH 7.4, 0.01% Tw20; D3 concentration-dependent", "method": "All measurements were performed using an XL-A analytical ultracentrifuge (Beckman coulter, Brea, CA, USA). […] All samples were prepared in 20 mM sodium phosphate, 50 mM NaCl (pH 7.4) containing 0.0004% PEI (w/v). Samples were then loaded into 3-mm double-sector titanium cells (Nanolytics, Potsdam, Germany), with each sector containing a 100 μL sample. The detection system uses an excitation laser at 488 nm and an emission cut-off filter at 505 nm to collect fluorescence signals. The amplification factor was adjusted to the same value for all samples for comparability. […] Data was acquired at 20 nm radial resolution. After thorough thermal equilibration the centrifugation was carried out at 60,000 rpm (289,000× g) at 20 °C for 15 h. Carrier proteins, such as albumin and kappa casein, are usually recommended to minimize unspecific surface adsorption for fluorescence-based AUC [56]. All sedimentation profiles were subjected to the software package SEDFIT (version 15.01b) for data evaluation. The data was analyzed with the continuous distribution c(s) Lamm equation model to obtain the sedimentation coefficient distributions. Fitting parameters (Table S1) including the buffer density and viscosity were determined using Sednterp (version 20130813BETA). […] Final graphs were generated using GUSSI (version 1.2.1) and sedimentation coefficients were standardized to s-values in pure water at 20 °C (s20,w)."}, "FITC-Aβ42": {"biological_target": "T2, FITC-Aβ42 (Homo sapiens, UniProt P05067)", "T2 construct": "purchased Bachem M-2585.1000", "T2 sequence (P05067 672-713 limits assumed)": "as above", "experiment": "Microscale thermophoresis, D3 titrated to FITC-Aβ42", "format": "binding", "method": "In detail, FITC-Aβ42 was dissolved in 20 mM sodium phosphate, 50 mM NaCl (pH 7.4—slightly alkali), 0.01% (v/v) Tw20 to obtain 80 nM stock solutions. 300 μM D3 was prepared in the same buffer. FITC-Aβ42 was then titrated with D3 solutions in 1:1 serial dilution steps to prepare 16 samples, in which the concentration of FITC-Aβ42 was kept constant at 40 nM, and the starting concentration of D3 was 150 μM. Samples were loaded into standard capillaries, and the thermophoresis was detected using a Monolith NT.115 (NanoTemper Technologies GmbH, Munich, Germany). The experiment was performed with 40% LED power and 60% microscale thermophoresis (MST) power. […] The final concentration of FITC-D3 in each sample was set to 40 nM. The LED power and MST power were adjusted to 30% and 60%, respectively. The on and off time for the IR laser was set to 30 s and 5 s. Since the working concentration of labeled molecules was rather low in this measurement, any signal loss due to surface adsorption might bias the data acquisition. Therefore trace amounts of Tw20 and PEI were used as additives in solution to minimize the unspecific surface adsorption of FITC-Aβ42 and FITC-D3 in capillaries, respectively. All measurements were conducted at 22 °C, and samples were prepared in triplicate.\nThe data was evaluated with PALMIST software (version 1.2.3) to obtain the dissociation constants. Changes in the normalized fluorescence ( ∆Fn ) with concentrations of the titrant were quantified and fitted with the 1:1 binding model available in the software using a 68.3% confidence interval. The graphic outputs were created using GUSSI (version 1.2.1)."}}, "note": "pKd: −log10 of the molar value. Like-named read-outs stand apart in the source and are kept apart here. Where a SMILES comes first, the peptide text is derived from it. [ ]: non-standard residue; d: D form.", "data": [{"compound": "CC(C)C[C@@H](NC(=O)[C@@H](CCCNC(=N)N)NC(=O)[C@H](NC(=O)[C@@H](CCCNC(=N)N)NC(=O)[C@H]1CCCN1C(=O)[C@H](N)CCCNC(=N)N)[C@H](C)O)C(=O)N[C@H](Cc1c[nH]cn1)C(=O)N[C@@H](C(=O)N[C@H](Cc1c[nH]cn1)C(=O)N[C@H](CCCNC(=N)N)C(=O)N[C@H](CC(N)=O)C(=O)N[C@H](CCCNC(=N)N)C(N)=O)[C@H](C)O", "note": "[D3] (H-[dR][dP][dR][dT][dR][dL][dH][dT][dH][dR][dN][dR]-NH2)", "values": [{"measurement": "Morphology of Aβ42 incubated with D3, 48 h", "setting": "Aβ42 [1]; 40 μM Aβ42 with 4 μM D3 (0.1 equimolar), 48 h", "value": "no fibrils"}, {"measurement": "Morphology of Aβ42 incubated with D3, 120 h", "setting": "Aβ42 [1]; 40 μM Aβ42 with 4 μM D3, 120 h", "value": "did not stop the fibril formation"}, {"measurement": "Self-assembly or aggregation of D3 in solution", "setting": "[2]", "value": "does not form any self-assemblies or aggregates"}, {"measurement": "Effect on ThT kinetics of Aβ42 with 1% seeds", "setting": "Aβ42 [3]; 10 μM Aβ42, 1% seeds, 1 μM D3, compared with Aβ42 without D3", "value": "longer lag phase"}, {"measurement": "Effect on ThT kinetics of Aβ42 with 5% seeds", "setting": "Aβ42 [3]; 10 μM Aβ42, 5% seeds, 1 μM D3 (0.1-fold), slopes compared with Aβ42 with 5% seeds only", "value": "retardation of the elongation process"}, {"measurement": "MST KD compared with SPR KD", "value": 10, "unit": "fold"}, {"measurement": "Effect of delayed D3 addition on the structural transformation of Aβ42", "setting": "Aβ42 [4]; 4 μM D3 added into 40 μM Aβ42 after 33 h preincubation", "value": "visibly delayed the structural transformation of Aβ42"}, {"measurement": "Ellipticity at 217 nm of the Aβ42 sample with D3 relative to Aβ42 alone", "setting": "Aβ42 [4]; 40 μM Aβ42 with 4 μM D3, at 120 h, triplicate", "value": "about 72%"}, {"measurement": "s20,w of new species formed on incubating D3 with FITC-Aβ42", "setting": "Aβ42 [5]", "value": "1.54 ± 0.11", "unit": "S"}, {"measurement": "pKd", "setting": "FITC-Aβ42; KD for D3 and Aβ42 (summary of both MST setups), both possible setups", "value": "~6.40"}, {"measurement": "pKd", "setting": "FITC-Aβ42; MST, 40 nM FITC-Aβ42, D3 from 150 μM in 1:1 serial dilution, 20 mM sodium phosphate, 50 mM NaCl pH 7.4, 0.01% Tw20, 22 °C, 1:1 binding model (PALMIST), brackets = 68.3% confidence interval, triplicate, read-out: KD of D3 binding to FITC-Aβ42", "value": 6.57}, {"measurement": "pKd", "setting": "FITC-Aβ42; MST, 40 nM FITC-Aβ42, 5 mM sodium phosphate, 50 mM NaCl pH 7.4, 0.01% Tw20, 22 °C, 1:1 binding model, brackets = 68.3% confidence interval, read-out: KD of FITC-Aβ42 and D3 in low ionic strength buffer", "value": 7.06}]}]}
